Results as given in paper PMC12188386, “Selective CBP/EP300 Bromodomain Inhibitors: Novel Epigenetic Tools to Counter TNF-α-Driven Inflammation” (JACS Au, 2025).

What was measured:
[1] = bidirectional Caco-2 permeability assay; assay type: in vitro ADME; settings: human; for Papp A→B at 120 min / Papp B→A at 120 min / efflux ratio at 120 min: Caco-2; for Papp A→B at 120 min: Direction: A-B (apical-to-basolateral); for Papp A→B at 120 min / Papp B→A at 120 min: n=2; for Papp B→A at 120 min: Direction: B-A (basolateral-to-apical); for efflux ratio at 120 min: from mean A-B and B-A data, read-out: Efflux Ratio (Papp(B-A)/Papp(A-B))
Experimental: (§1) Bidirectional Caco-2 Permeability Assay (provided by Cyprotex Discovery Ltd; Cheshire, UK)19 Following a standard Cyprotex procedure, Caco-2 cells (ATCC), used at passages 40–60, were seeded nt ranswe inserts at a densit f × ⁵ ce s/cm² and maintained in with media changes carried out every 2–3 days. Permeability assays were performed between days 18–22 post-seedin . pr cedures were c nducted at ° in a humidified incu at r with O₂. On the day of the assay, monolayers were prepared by rinsing both the apical and basolateral compartments with pre-warmed anks’ a anced a t uti n at the desired pH and incubated with HBSS on both sides for 30 minutes to equilibrate the compartments. The dosing solutions were obtained by diluting the test compounds in assay uffer t a c ncentrati n f with a fina O c ncentrati n f ≤ v/v and Lucifer yellow was included as a fluorescent marker to assess monolayer integrity. Analytical standards were prepared similarly, omitting the Lucifer yellow . For apical-to-basolateral (A– B) measurements, the dosing solution was applied to the apical chamber and buffer to the basolateral side, while the configuration was reversed for basolateral-to-apical (B–A) measurements. After a 120 min incubation, samples from both compartments were collected and diluted for quantification. Permeability was assessed in duplicates, and reference […]
(§2) compounds with known characteristics were included as controls. Quantification of test and control compounds was performed by LC-MS/MS using an 8-point calibration curve under Cyprotex standard analytical conditions. The initial concentration (C0) at time zero was determined from the dosing solution, and recovery was calculated based on concentrations […]
(§3) The apparent permeability coefficient (Papp) is calculated from the equation (where dQ/dt is the drug permeation rate across the cells, C0 is the concentration in the donor compartment at time zero, and A is the area of the cell monolayer):
(§4) Efflux ratio (ER) is calculated from mean A-B and B-A data: […]
(§5) Cells were fixed in situ with cold TCA: untreated cells at the time of compound addition (Tz) and treated cells 48 h after addition of compound (Ti). Cells were washed, then su f rh damine s uti n μ at . w/v in acetic acid was added to each well and incubated for 10 minutes at room temperature. After washing again, the plates were air dried and bound stain solubilized with 10 mM Trizma base before absorbance was […]
(§6) Percentage growth (%Growth) was calculated as follows:
(§7) when Ti ≥ Tz, %Growth = Ti − Tz x 100 where Ti = absorbance from compound treated cells, Tz = absorbance from untreated cells at time zero, and C = absorbance from control (DMSO) treated cells.
(§8) HEK293T, MRC5 and LP1 cells were cultured in DMEM (Gibco 41966 -029) containing 10 % or 15 % (LP1) FBS (Gibco 10270106 or Sigma F9665), 1 % non-essential amino acids (MRC5 only, […]
(§9) cultured in RPMI 1640 (Gibco 21875-034) containing 10 % FBS and 1 % P/S. All cells were grown in a humidified incubator with 5 % CO 2 at 37 °C.

Caco-2 cells = test: bidirectional Caco-2 permeability assay; assay type: in vitro ADME; settings: for Papp Replicate 1 / Papp Replicate 2: 120 min; for membrane permeability (Caco-2), in words: bidirectional Caco-2 assay
Experimental: as §1, §2, §3, §4, §5, §6, §7, §8, §9

[2] = target: T1, CBP-BRD (ePL-CBP-BRD in HEK293T cells) (Homo sapiens, UniProt Q92793); test: CBP-BRD InCELL Pulse cellular target engagement; assay type: cell-based; settings: 1 h compound treatment of HEK293T cells transiently transfected with ePL-CBP-BRD
T1 construct: (residues 1083-1197) was cloned into the pICP-ePL-C vector; expressed in transfected cells; host or cells: HEK293T, transient transfection (vector pICP-ePL-C, DiscoverX 94-4007S)
T1 sequence (Q92793 1083-1197): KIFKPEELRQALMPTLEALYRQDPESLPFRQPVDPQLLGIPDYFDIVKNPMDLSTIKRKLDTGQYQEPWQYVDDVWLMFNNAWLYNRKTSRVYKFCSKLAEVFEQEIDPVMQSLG
Experimental: The CBP-BRD (residues 1083-1197) was cloned into the pICP-ePL-C vector (DiscoverX, 94-4007S) between the EcoRI and XhoI restriction sites using the hexahistidine-CREBBP plasmid as a template. 5x10^5 HEK293T cells were plated on a 6 well plate the day prior to transfection with 1.5 μg ePL-CBP-BRD plasmid using 5 μl FugeneHD (Promega E2311) in 500 μl optiMEM® (Gibco, 31985062) . Proteins were allowed to express for 20 h before cells were trypsinized, washed and resuspended in low -serum medium (DMEM with 5 % FBS). Compounds were serially diluted in DMSO at 100x, pre-diluted to 5x in complete medium (DMEM with 10 % FBS and 1 % P/S), then added to a suspension of 5x10^3 cells, giving a final DMSO concentration of 1 %. Treated cells were incubated for 1 h at 37 °C in an incubator, followed by a heat shock for 3 min at 45 °C and recovery for 3 min at 22 °C using a thermocycler with a ramp rate of 1 °C/s (SimpliAmp, Thermo Fisher). Stab ilized ePL tag was quantified using the InCELL detecti n Kit isc verX as per the manufacturer’s pr t c usin the -10 working detection solution and a 2 h incubation before reading luminescence with a SpectraMax M5 plate reader (Molecular devices). […]

[3] = Caco-2, Direction: A-B (apical-to-basolateral)
[4] = Caco-2, Direction: B-A (basolateral-to-apical)
[5] = Direction: A-B (apical-to-basolateral)
[6] = Direction: B-A (basolateral-to-apical)

Compound	recovery at 120 min [1, 3]	recovery at 120 min [1, 4]	Papp A→B at 120 min [1]	Papp B→A at 120 min [1]	efflux ratio at 120 min [1]	Papp Replicate 1 (Caco-2 cells; [5])	Papp Replicate 2 (Caco-2 cells; [5])	Papp Replicate 1 (Caco-2 cells; [6])	Papp Replicate 2 (Caco-2 cells; [6])	membrane permeability (Caco-2), in words (Caco-2 cells)	cellular binding to CBP-BRD (InCELL Pulse) [2]
CC(=O)Nc1cc(NC(=O)c2ccco2)cc(C(=O)Nc2cccc3nnc(C)cc23)c1 [Compound 1]	80%	87.3%	0.0375 ×10⁻⁶ cm/s	11.5 ×10⁻⁶ cm/s	307	0.0348 10-6 cms-1	0.0401 10-6 cms-1	11.6 10-6 cms-1	11.5 10-6 cms-1	very low membrane permeability	no ligand engagement in cellulo
Cc1cc2c(NC(=O)c3cc(NC(=O)c4ccco4)cc(-c4ccn(C)n4)c3)cccc2nn1 [Compound 2]	47%	61.8%	0.549 ×10⁻⁶ cm/s	29 ×10⁻⁶ cm/s	52.9	0.565 10-6 cms-1	0.533 10-6 cms-1	28.9 10-6 cms-1	29.2 10-6 cms-1	improved cellular permeability	significant improvement in terms of cellular target engagement
Cc1cc2c(NC(=O)c3cc(NC(=O)[C@H]4CCCO4)cc(-c4ccn(C)n4)c3)cccc2nn1 [Compound 5]	68.2%	78%	0.623 ×10⁻⁶ cm/s	32.5 ×10⁻⁶ cm/s	52.2	0.57 10-6 cms-1	0.677 10-6 cms-1	34.2 10-6 cms-1	30.9 10-6 cms-1	improved cellular permeability	able to engage the target very similarly
